Test results reported in PubChem BioAssay AID248 (DTP/NCI, 2004).
Values joined by “and” are separate entries in the source; they are usually repeats but may differ in a detail not shown here. Identical values can stand only once. Toxic doses and inconclusive results are not listed. Cut-off read from the data, not from the text of the source: active = T/C of 150% or more; inactive = T/C below 125%.

Test system: L1210 leukemia ip in BDF1 mice, survival T/C
Experiment: NCI In Vivo Anticancer Drug Screen. Data for tumor model L1210 Leukemia (intraperitoneal) in B6D2F1 (BDF1) mice
Details: endpoint: mean survival time, higher = longer survival
Outline: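 Survival endpoint. Drug-treated group vs vehicle group, expressed as T divided by C. Tumor passaged by transplantation.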

[1] = dose: 100.0 mg/kg/injection, schedule: Q01DX001 (ip), vehicle: saline
[2] = dose: 200.0 mg/kg/injection, schedule: Q01DX001 (ip), vehicle: saline
[3] = dose: 400.0 mg/kg/injection, schedule: Q01DX001 (ip), vehicle: saline
[4] = dose: 100.0 mg/kg/injection, schedule: Q01DX009 (ip), vehicle: saline with Tween-80
[5] = dose: 100.0 mg/kg/injection, schedule: Q04DX003 (ip), vehicle: saline with Tween-80
[6] = dose: 200.0 mg/kg/injection, schedule: Q01DX009 (ip), vehicle: saline with Tween-80
[7] = dose: 200.0 mg/kg/injection, schedule: Q04DX003 (ip), vehicle: saline with Tween-80

Measured: T/C

CCCSc1ncnc2nc[nH]c12
inactive: dose: 31.3 mg/kg/injection, schedule: Q01DX009 (ip), vehicle: saline 93 % of control and 100 % of control | dose: 62.5 mg/kg/injection, schedule: Q01DX009 (ip), vehicle: saline 97 % of control and 121 % of control | dose: 125.0 mg/kg/injection, schedule: Q01DX009 (ip), vehicle: saline 121 % of control | dose: 250.0 mg/kg/injection, schedule: Q01DX009 (ip), vehicle: saline 100 % of control

Cc1ccc(NC(=O)c2ccc(C)c(N)c2)c(C)c1
inactive: dose: 100.0 mg/kg/injection, schedule: Q01DX009 (ip), vehicle: gum acacia 100 % of control | dose: 100.0 mg/kg/injection, schedule: Q04DX003 (ip), vehicle: gum acacia 98 % of control | dose: 200.0 mg/kg/injection, schedule: Q01DX009 (ip), vehicle: gum acacia 87 % of control | dose: 200.0 mg/kg/injection, schedule: Q04DX003 (ip), vehicle: gum acacia 102 % of control | dose: 400.0 mg/kg/injection, schedule: Q01DX009 (ip), vehicle: gum acacia 87 % of control | dose: 400.0 mg/kg/injection, schedule: Q04DX003 (ip), vehicle: gum acacia 98 % of control

ClC12CCC(Cl)(CC1)CC2
inactive: dose: 75.0 mg/kg/injection, schedule: Q01DX001 (ip), vehicle: acetone 103 % of control

COc1cc2c(cc1OC)-c1c(OC)c(OC)cc3c1[C@H](C2)N(C)CC3
inactive: dose: 100.0 mg/kg/injection, schedule: Q01DX001 (ip), vehicle: carboxymethylcellulose (CMC) 96 % of control | dose: 200.0 mg/kg/injection, schedule: Q01DX001 (ip), vehicle: carboxymethylcellulose (CMC) 100 % of control | dose: 400.0 mg/kg/injection, schedule: Q01DX001 (ip), vehicle: carboxymethylcellulose (CMC) 100 % of control

Cc1cccc(C)c1NC(=O)N(CCO)C1CCCCC1
inactive: dose: 100.0 mg/kg/injection, schedule: Q04DX003 (ip), vehicle: saline 102 % of control | dose: 200.0 mg/kg/injection, schedule: Q04DX003 (ip), vehicle: saline 112 % of control | dose: 400.0 mg/kg/injection, schedule: Q04DX003 (ip), vehicle: saline 104 % of control

C=C(C)C#CCN(CCO)C(C)C
inactive: dose: 75.0 mg/kg/injection, schedule: Q01DX001 (ip), vehicle: other 96 % of control | dose: 150.0 mg/kg/injection, schedule: Q01DX001 (ip), vehicle: other 96 % of control

CCOC(=O)/C=C(/N)c1c(C)[nH]c2ccccc12
inactive: [1] 102 % of control | [2] 113 % of control | [3] 87 % of control

COc1ccc(C2c3cc(OC)c(OC)c(S(N)(=O)=O)c3CC3C(=O)OCC32)cc1OC (configuration not stated)
inactive: [1] 98 % of control | [2] 96 % of control | [3] 98 % of control

COc1ccccc1C(C#N)NCCCNC(C#N)c1ccccc1OC (configuration not stated)
inactive: dose: 10.0 mg/kg/injection, schedule: Q01DX001 (ip), vehicle: saline 89 % of control | dose: 20.0 mg/kg/injection, schedule: Q01DX001 (ip), vehicle: saline 110 % of control

CC1CCCCC1NC(=O)NCCOC(=O)OCCNC(=O)NC1CCCCC1C (configuration not stated)
inactive: [4] 95 % of control | [5] 100 % of control | [6] 95 % of control | [7] 91 % of control | dose: 400.0 mg/kg/injection, schedule: Q01DX009 (ip), vehicle: saline with Tween-80 90 % of control | dose: 400.0 mg/kg/injection, schedule: Q04DX003 (ip), vehicle: saline with Tween-80 86 % of control

CN(C)Cc1ccncc1
inactive: dose: 50.0 mg/kg/injection, schedule: Q01DX001 (ip), vehicle: saline 101 % of control | dose: 50.0 mg/kg/injection, schedule: Q01DX009 (ip), vehicle: saline with Tween-80 93 % of control | dose: 50.0 mg/kg/injection, schedule: Q04DX003 (ip), vehicle: saline with Tween-80 92 % of control | [1] 101 % of control | [4] 101 % of control | [5] 92 % of control | [2] 101 % of control | [6] 96 % of control | [7] 95 % of control
